{
  "source": "patent US12076307B2",
  "about": "“Compositions for prevention or treatment of acute radiation syndrome and other radiation exposure” (priority 2017, dated 2024)",
  "key": {"[1]": {"test": "In vitro metabolite screening, monkey liver microsomes", "type": "in vitro ADME", "conditions": "NHP, N=2", "protocol": "[^14C]EC-18 or the positive control (7-ethoxycoumarin; 7-EC) reacted with microsomes prepared from hepatocytes of rats, dogs, monkeys, and humans, with or without cofactors, for 60 and 120 min. Then, the residual EC-18 concentration over time was measured by LC-RID ([^14C]EC-18) or LC-MS/MS (7-EC) (FIG. 63 and FIG. 64).\nThe LC-RID chromatographic profiles of radioactive metabolites produced in the 2-hr incubation reaction mixtures of the same test systems A, B, and C used to assess the metabolic and non-metabolic elimination rates of EC-18 were compared to the LC-UV chromatographic profiles of the synthetic reference material. […] The relative radioactivity of EC-18 accounted for 42-67% of total radioactivity. The peaks designated as M2, M3, and M5 were also determined in all species, and their relative radioactivity accounted for 12-34% of total radioactivity. The peaks of M4 and M6 were determined in monkeys and humans. M1 was abundantly detected in all species, but it was assumed to be a peak of early elution. The LC-UV chromatograms of reaction mixtures in each test system (FIGS. 65A-65C) and the relative radioactivity of the screened metabolites are shown in Table 25."}, "CYP3A4": {"test_system": "CYP3A4", "conditions": "for Enzyme Activity CYP3A4: n=3", "protocol": "This test was performed to determine if EC-18 was capable of inducing CYP1A2 and CYP3A4 activities in human primary hepatocytes."}, "SD rat [2]": {"test_system": "SD rat", "test": "Immunotoxicity study", "type": "in vivo", "conditions": "Oral; 4 weeks; 0, 2000 mg/kg", "source_text": "(§1) Various toxicology studies have been performed. All studies were GLP-compliant unless otherwise noted."}, "[3]": {"test": "Plasma and lymphatic concentrations of EC-18 in rats after single oral administration", "type": "in vivo, rat", "conditions": "for AUC(0-t) / Cmax / Tmax / half-life: n=3", "protocol": "After administering a single oral dose of 500 or 2000 mg/kg of EC-18 (vehicle: olive oil) to male SD rats, the EC-18 concentration in the sampled plasma and lymphatic fluid was measured to generate the values of PK parameters (Table 16). […] The rate of increase in plasma Cmax and AUClast was lower than the rate of increase of the administered dosage."}, "[4]": {"test_system": "S. typhi-murium (TA98, TA100, TA1535, TA1537), E. coli (WP2uvrA(pKM101))", "type": "cell-based", "conditions": "in vitro; 48 hr; 312.5-5000 μg/plate", "source_text": "as §1"}, "P-gp": {"target": "T1, P-gp (Homo sapiens, UniProt P08183)", "T1 construct": "expressed in transfected cells; host or cells: LLC-PK1", "T1 sequence (P08183 whole entry)": "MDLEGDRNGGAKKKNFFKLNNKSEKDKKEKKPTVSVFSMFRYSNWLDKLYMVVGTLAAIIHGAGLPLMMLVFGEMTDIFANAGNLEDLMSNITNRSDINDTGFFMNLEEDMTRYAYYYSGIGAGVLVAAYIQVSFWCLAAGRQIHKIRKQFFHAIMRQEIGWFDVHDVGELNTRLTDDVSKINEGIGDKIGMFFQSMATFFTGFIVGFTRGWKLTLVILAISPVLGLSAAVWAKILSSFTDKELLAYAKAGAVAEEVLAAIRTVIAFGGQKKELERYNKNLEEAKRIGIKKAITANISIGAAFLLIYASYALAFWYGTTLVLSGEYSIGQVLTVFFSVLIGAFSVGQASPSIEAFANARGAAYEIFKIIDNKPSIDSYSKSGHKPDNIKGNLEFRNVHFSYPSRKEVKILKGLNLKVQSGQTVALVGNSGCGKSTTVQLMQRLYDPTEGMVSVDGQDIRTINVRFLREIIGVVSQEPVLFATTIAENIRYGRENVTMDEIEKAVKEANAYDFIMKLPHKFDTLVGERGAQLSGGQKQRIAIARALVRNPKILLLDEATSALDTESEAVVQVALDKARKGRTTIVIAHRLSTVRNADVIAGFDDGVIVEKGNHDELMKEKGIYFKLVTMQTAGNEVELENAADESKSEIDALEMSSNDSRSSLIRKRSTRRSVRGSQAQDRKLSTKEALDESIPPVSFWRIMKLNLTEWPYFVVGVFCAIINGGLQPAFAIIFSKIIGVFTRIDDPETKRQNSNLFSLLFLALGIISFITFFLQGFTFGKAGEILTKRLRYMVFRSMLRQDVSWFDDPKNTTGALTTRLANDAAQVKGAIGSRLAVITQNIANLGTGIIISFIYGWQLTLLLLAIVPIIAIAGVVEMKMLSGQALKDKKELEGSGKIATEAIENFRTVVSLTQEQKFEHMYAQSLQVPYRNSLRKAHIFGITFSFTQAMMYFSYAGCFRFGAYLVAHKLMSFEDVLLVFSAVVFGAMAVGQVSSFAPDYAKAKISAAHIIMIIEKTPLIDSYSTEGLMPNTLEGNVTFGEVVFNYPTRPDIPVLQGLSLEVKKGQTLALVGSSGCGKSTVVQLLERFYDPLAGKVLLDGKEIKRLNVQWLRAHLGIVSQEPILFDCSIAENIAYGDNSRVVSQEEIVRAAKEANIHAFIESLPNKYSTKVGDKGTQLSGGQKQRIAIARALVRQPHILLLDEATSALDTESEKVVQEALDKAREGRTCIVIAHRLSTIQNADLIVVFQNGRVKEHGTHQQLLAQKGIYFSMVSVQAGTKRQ", "test": "Drug transporter inhibition, P-gp", "type": "in vitro ADME", "conditions": "[3H]digoxin; transfected LLC-PK1 cells", "protocol": "(§2) This study examined the potential of EC-18 to interact with the transporter proteins that have been known to be involved in the absorption of commercially available drugs. EC-18 was pre-incubated with HEK-293 cells and LLC-PK1 cells that were transfected with the genes of most drug transporters as follows: OATP1B1, OATP1B3, OAT1, OAT3 and OCT2, and BCRP and P-gp, respectively."}, "SD rat [5]": {"test_system": "SD rat", "test": "Repeated dose toxicity, SD rat", "type": "in vivo", "conditions": "Oral", "source_text": "as §1"}, "[6]": {"test": "Repeated dose toxicity, SD rat", "type": "in vivo", "conditions": "SD, rat, in vivo, Oral", "source_text": "as §1"}, "OATP1B1": {"target": "T2, OATP1B1 (Homo sapiens, UniProt Q9Y6L6)", "T2 construct": "expressed in transfected cells; host or cells: HEK-293", "T2 sequence (Q9Y6L6 whole entry, species assumed)": "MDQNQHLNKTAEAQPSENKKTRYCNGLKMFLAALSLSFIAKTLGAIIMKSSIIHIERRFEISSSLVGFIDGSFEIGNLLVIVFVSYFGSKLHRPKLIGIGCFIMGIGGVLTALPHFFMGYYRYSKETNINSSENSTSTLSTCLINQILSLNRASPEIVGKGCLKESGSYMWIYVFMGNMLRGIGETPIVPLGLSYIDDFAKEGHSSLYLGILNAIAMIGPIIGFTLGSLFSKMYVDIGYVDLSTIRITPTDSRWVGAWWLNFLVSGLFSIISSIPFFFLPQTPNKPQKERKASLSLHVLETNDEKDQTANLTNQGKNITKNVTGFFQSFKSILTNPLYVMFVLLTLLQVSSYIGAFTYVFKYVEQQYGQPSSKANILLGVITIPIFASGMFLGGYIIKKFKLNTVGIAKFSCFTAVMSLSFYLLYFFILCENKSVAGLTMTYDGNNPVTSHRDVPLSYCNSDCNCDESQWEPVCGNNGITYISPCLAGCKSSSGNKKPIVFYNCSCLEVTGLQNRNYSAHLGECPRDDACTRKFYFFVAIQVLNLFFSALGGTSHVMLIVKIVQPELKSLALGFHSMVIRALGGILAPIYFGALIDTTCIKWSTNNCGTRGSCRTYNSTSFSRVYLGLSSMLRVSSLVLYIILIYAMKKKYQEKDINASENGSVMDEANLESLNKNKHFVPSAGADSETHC", "test": "Drug transporter inhibition, OATP1B1", "type": "in vitro ADME", "conditions": "100 nM [3H] estrone-3-sulfate; transfected HEK-293 cells", "protocol": "as §2"}, "SD rat [7]": {"test_system": "SD rat", "test": "Embryo-fetal developmental toxicity study, SD rat", "type": "in vivo", "conditions": "for mortality: 0, 500, 1000, 2000 mg/kg", "source_text": "as §1"}, "[8]": {"test": "Embryo-fetal developmental toxicity study, SD rat", "type": "in vivo", "conditions": "SD, rat, in vivo; definitive study; Oral 11 days", "source_text": "as §1"}, "SD rat [9]": {"test_system": "SD rat", "test": "Single-dose toxicity, SD rat", "type": "in vivo", "source_text": "as §1"}, "gemcitabine-treated mice": {"test_system": "gemcitabine-treated mice", "test": "Gemcitabine-induced neutropenia, PLAG with pegfilgrastim", "type": "in vivo, mouse", "protocol": "In this work, neutrophil counts were compared in four groups of mice: control mice, gemcitabine-treated mice, gemcitabine/pegfilgrastim-treated mice, and gemcitabine/pegfilgrastim/PLAG-treated mice. Gemcitabine was administered intraperitoneally to induce neutropenia. On Day 0, pegfilgrastim was administered subcutaneously. PLAG (50 mg/kg) was orally administered every day during the treatment course. Blood was taken from the orbital sinuses on Days 0, 3, and 5, and neutrophils were counted. […] Pegfilgrastin is polyethylene glycol (PEG)-conjugated granulocyte colony-stimulating factor (PEGylated-G-CSF, pegfilgrastim)."}, "OATP1B3": {"target": "T3, OATP1B3 (Homo sapiens, UniProt Q9NPD5)", "T3 construct": "expressed in transfected cells; host or cells: HEK-293", "T3 sequence (Q9NPD5 whole entry, species assumed)": "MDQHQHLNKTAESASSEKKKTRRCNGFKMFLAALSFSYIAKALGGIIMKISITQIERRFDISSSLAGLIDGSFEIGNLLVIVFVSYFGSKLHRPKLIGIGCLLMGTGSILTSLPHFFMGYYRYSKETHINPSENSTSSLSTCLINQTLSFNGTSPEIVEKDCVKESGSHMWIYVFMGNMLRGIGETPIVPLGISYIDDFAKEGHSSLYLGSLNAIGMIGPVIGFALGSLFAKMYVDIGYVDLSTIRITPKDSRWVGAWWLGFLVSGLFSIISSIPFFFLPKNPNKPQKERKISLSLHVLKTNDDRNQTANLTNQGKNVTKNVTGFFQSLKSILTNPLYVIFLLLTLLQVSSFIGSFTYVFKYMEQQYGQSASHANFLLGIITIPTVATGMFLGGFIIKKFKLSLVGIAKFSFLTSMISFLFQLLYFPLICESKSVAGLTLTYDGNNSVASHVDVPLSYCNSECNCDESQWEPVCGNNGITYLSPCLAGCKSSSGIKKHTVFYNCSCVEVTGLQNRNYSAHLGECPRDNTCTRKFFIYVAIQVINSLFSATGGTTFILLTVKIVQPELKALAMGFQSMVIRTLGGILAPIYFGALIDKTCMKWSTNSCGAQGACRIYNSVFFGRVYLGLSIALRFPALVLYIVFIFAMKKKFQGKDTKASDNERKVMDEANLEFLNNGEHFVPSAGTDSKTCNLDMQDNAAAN", "test": "Drug transporter inhibition, OATP1B3", "type": "in vitro ADME", "conditions": "100 nM [3H] estradiol-17β-D-glucuronide; transfected HEK-293 cells", "protocol": "as §2"}, "OAT3": {"target": "T4, OAT3 (Homo sapiens, UniProt Q8TCC7)", "T4 construct": "expressed in transfected cells; host or cells: HEK-293", "T4 sequence (Q8TCC7 whole entry, species assumed)": "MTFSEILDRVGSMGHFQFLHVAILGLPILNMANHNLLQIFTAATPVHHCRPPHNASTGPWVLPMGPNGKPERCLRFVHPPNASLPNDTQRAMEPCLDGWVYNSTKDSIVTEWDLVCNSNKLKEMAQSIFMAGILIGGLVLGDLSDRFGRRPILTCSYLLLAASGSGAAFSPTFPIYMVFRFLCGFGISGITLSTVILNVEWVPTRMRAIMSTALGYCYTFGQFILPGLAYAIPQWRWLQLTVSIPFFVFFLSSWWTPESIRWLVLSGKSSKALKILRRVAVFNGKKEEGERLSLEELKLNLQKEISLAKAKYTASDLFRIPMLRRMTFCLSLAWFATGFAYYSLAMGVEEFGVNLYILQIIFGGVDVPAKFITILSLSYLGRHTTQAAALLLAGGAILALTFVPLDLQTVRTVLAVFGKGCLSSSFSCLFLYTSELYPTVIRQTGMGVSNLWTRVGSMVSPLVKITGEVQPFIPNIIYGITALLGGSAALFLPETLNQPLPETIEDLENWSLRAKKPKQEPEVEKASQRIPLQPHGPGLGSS", "test": "Drug transporter inhibition, OAT3", "type": "in vitro ADME", "conditions": "100 nM [3H] estrone-3-sulfate; transfected HEK-293 cells", "protocol": "as §2"}, "CYP2C9": {"target": "T5, CYP2C9 (Homo sapiens, UniProt P11712)", "T5 construct": "incubated with human liver microsomes; from tissue; host or cells: human liver microsomes", "T5 sequence (P11712 whole entry)": "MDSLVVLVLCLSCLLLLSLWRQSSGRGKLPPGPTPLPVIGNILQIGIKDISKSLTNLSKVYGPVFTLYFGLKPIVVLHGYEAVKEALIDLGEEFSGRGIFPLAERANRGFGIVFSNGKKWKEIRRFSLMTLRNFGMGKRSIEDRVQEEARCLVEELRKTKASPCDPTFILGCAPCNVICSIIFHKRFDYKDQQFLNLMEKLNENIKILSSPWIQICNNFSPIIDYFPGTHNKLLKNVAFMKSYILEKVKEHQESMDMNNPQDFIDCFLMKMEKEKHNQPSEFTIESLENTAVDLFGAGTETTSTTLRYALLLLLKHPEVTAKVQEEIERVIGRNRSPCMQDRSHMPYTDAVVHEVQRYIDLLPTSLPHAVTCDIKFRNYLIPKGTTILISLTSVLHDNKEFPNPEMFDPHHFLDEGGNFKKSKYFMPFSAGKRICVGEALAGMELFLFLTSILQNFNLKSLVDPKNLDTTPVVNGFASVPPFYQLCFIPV", "test": "CYP enzyme inhibition in human liver microsomes, CYP2C9", "type": "in vitro ADME"}, "[10]": {"conditions": "male, SD, rat, Lymph, 500 mg/kg oral"}, "[11]": {"conditions": "male, SD, rat, Lymph, 2000 mg/kg oral"}, "[12]": {"conditions": "male, SD, rat, Plasma, 500 mg/kg oral"}, "[13]": {"conditions": "male, SD, rat, Plasma, 2000 mg/kg oral"}},
  "note": "Read-outs that look alike come from different tables or passages of the source.",
  "data": [
    {"smiles": "CCCCC/C=C\\C/C=C\\CCCCCCCC(=O)OC(COC(C)=O)COC(=O)CCCCCCCCCCCCCCC", "note": "(centres unmarked) [EC-18, 1-palmitoyl-2-linoleoyl-3-acetylglycerol]", "values": [
      {"measurement": "Mean Peak Area in LC-RID", "setting": "[1]; A (NADPH added), [14C]EC-18 2 hrs", "result": 46.8, "unit": "%"},
      {"measurement": "Mean Peak Area in LC-RID", "setting": "[1]; B (NADPH, PAPS, UDPGA added), 2 hrs", "result": 46.0, "unit": "%"},
      {"measurement": "Mean Peak Area in LC-RID", "setting": "[1]; C (no cofactor added), 2 hrs", "result": 41.8, "unit": "%"},
      {"measurement": "Enzyme Activity CYP3A4", "setting": "CYP3A4; 1 μM", "result": "3.44 ± 0.73", "unit": "pmol/106 Cells/Min"},
      {"measurement": "Enzyme Activity CYP3A4", "setting": "CYP3A4; 10 μM", "result": "3.11 ± 0.25", "unit": "pmol/106 Cells/Min"},
      {"measurement": "Enzyme Activity CYP3A4", "setting": "CYP3A4; 100 μM", "result": "3.61 ± 0.28", "unit": "pmol/106 Cells/Min"},
      {"measurement": "potential to induce CYP3A4", "setting": "CYP3A4; up to 100 μM", "result": "no potential to induce"},
      {"measurement": "immunotoxicity", "setting": "SD rat [2]", "result": "No immunotoxicity"},
      {"measurement": "bioavailability", "setting": "[3]; male, SD, rat, plasma, 500-2000 mg/kg oral, read-out: mean absolute bioavailability (BA)", "result": "< 0.3", "unit": "%"},
      {"measurement": "AUC(0-t)", "setting": "[3]; [10]", "result": "903 ± 272", "unit": "ng·h/mL"},
      {"measurement": "Cmax", "setting": "[3]; [10]", "result": "78.1 ± 34.1", "unit": "ng/mL"},
      {"measurement": "Tmax", "setting": "[3]; [10]", "result": "3.33 ± 1.15", "unit": "h"},
      {"measurement": "AUC(0-t)", "setting": "[3]; [11]", "result": "2630 ± 1130", "unit": "ng·h/mL"},
      {"measurement": "Cmax", "setting": "[3]; [11]", "result": "245 ± 54.2", "unit": "ng/mL"},
      {"measurement": "Tmax", "setting": "[3]; [11]", "result": "3 ± 2.65", "unit": "h"},
      {"measurement": "half-life", "setting": "[3]; [11]", "result": "12.3 ± 5.08", "unit": "h"},
      {"measurement": "AUC(0-t)", "setting": "[3]; [12]", "result": "6.97 ± 8.2", "unit": "ng·h/mL"},
      {"measurement": "Cmax", "setting": "[3]; [12]", "result": "6.87 ± 6.12", "unit": "ng/mL"},
      {"measurement": "Tmax", "setting": "[3]; [12]", "result": "0.5 ± 0.5", "unit": "h"},
      {"measurement": "AUC(0-t)", "setting": "[3]; [13]", "result": "44.5 ± 39.5", "unit": "ng·h/mL"},
      {"measurement": "Cmax", "setting": "[3]; [13]", "result": "12.1 ± 6.66", "unit": "ng/mL"},
      {"measurement": "Tmax", "setting": "[3]; [13]", "result": "1.67 ± 0.58", "unit": "h"},
      {"measurement": "half-life", "setting": "[3]; [13]", "result": "3.07 ± 0.87", "unit": "h"},
      {"measurement": "time to reach the lymphatic system", "setting": "[3]; single oral", "result": "≤ 3", "unit": "h"},
      {"measurement": "time to absorption", "setting": "[3]; single oral 500 or 2000 mg/kg", "result": "≤ 2", "unit": "h"},
      {"measurement": "induction of reverse mutation", "setting": "[4]", "result": "No potential of EC-18"},
      {"measurement": "IC50", "setting": "P-gp", "result": "> 32", "unit": "µM"},
      {"measurement": "findings", "setting": "SD rat [5]; 4 weeks (DRF)", "result": "No specific findings"},
      {"measurement": "mortality", "setting": "SD rat [5]; 4 weeks (DRF), 0, 500, 1000, 2000 mg/kg", "result": "No dead animals"},
      {"measurement": "findings", "setting": "SD rat [5]; 13 weeks", "result": "No specific findings"},
      {"measurement": "mortality", "setting": "SD rat [5]; 13 weeks, 0, 500, 1000, 2000 mg/kg", "result": "No dead animals"},
      {"measurement": "findings", "setting": "SD rat [5]; 26 weeks (4-week recovery)", "result": "No specific findings"},
      {"measurement": "mortality", "setting": "SD rat [5]; 26 weeks (4-week recovery), male in 500 mg/kg group, 41st day, no relationship to EC-18 dosing", "result": "A single case of death"},
      {"measurement": "NOAEL at 4 weeks", "setting": "[6]; 4 weeks (DRF)", "result": "> 2000", "unit": "mg/kg/day"},
      {"measurement": "NOAEL at 13 weeks", "setting": "[6]; 13 weeks", "result": "> 2000", "unit": "mg/kg/day"},
      {"measurement": "NOAEL at 26 weeks", "setting": "[6]; 26 weeks (4-week recovery)", "result": "> 2000", "unit": "mg/kg/day"},
      {"measurement": "IC50", "setting": "OATP1B1", "result": "> 32", "unit": "µM"},
      {"measurement": "significant differences in implantation rate, male-to-female ratio of fetuses, fetal mortality rate vs control", "setting": "SD rat [7]; DRF study, Oral 11 days", "result": "There were no"},
      {"measurement": "mortality", "setting": "SD rat [7]; DRF study, Oral 11 days (day-7 to day-17 of pregnancy)", "result": "No dead animals"},
      {"measurement": "findings", "setting": "SD rat [7]; definitive study, Oral 11 days", "result": "No specific findings"},
      {"measurement": "mortality", "setting": "SD rat [7]; definitive study, Oral 11 days", "result": "No dead animals"},
      {"measurement": "NOAEL at 11 days", "setting": "[8]", "result": 2000, "unit": "mg/kg/day"},
      {"measurement": "Approximate lethal dose", "setting": "SD rat [9]; Oral", "result": "dose: >2000 mg/kg"},
      {"measurement": "mortality", "setting": "SD rat [9]; Oral, 0, 2000 mg/kg", "result": "No dead animals"},
      {"measurement": "blood cell apoptosis and neutrophil release from bone marrow", "setting": "gemcitabine-treated mice; PLAG 50 mg/kg", "result": "did not affect"},
      {"measurement": "pegfilgrastim-induced CXCR2 expression in neutrophils", "setting": "gemcitabine-treated mice; PLAG 50 mg/kg", "result": "markedly decreased"},
      {"measurement": "neutrophil counts", "setting": "gemcitabine-treated mice; gemcitabine/pegfilgrastim/PLAG 50 mg/kg oral daily, third day following pegfilgrastim", "result": "dramatically increased"},
      {"measurement": "IC50", "setting": "OATP1B3", "result": "> 32", "unit": "µM"},
      {"measurement": "IC50", "setting": "OAT3", "result": "> 32", "unit": "µM"},
      {"measurement": "IC50", "setting": "CYP2C9", "result": 7990, "unit": "µM"}
    ]}
  ]
}
